Laboratory results from PMC3347531, “Mutation of Residue βF71 of Escherichia coli Penicillin Acylase Results in Enhanced Enantioselectivity and Improved Catalytic Properties” (Acta Naturae, 2009).

Molecular target: T1, penicillin acylase (PA) from Escherichia coli (Escherichia coli, UniProt P06875)
T1 construct: gene pac; mature alpha/beta heterodimer processed from one precursor; recombinant from plasmid pEC in E. coli, purified
Assay: initial rate hydrolysis, enantioselectivity from kcat/Km ratio
Type: biochemical

T1 sequence (P06875 27-235): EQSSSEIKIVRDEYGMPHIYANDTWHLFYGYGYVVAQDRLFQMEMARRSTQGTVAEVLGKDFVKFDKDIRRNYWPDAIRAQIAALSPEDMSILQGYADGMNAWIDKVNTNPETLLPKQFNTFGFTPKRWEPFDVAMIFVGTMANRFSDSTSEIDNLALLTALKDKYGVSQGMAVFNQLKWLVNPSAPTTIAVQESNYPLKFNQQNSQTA
T1 sequence (P06875 290-846): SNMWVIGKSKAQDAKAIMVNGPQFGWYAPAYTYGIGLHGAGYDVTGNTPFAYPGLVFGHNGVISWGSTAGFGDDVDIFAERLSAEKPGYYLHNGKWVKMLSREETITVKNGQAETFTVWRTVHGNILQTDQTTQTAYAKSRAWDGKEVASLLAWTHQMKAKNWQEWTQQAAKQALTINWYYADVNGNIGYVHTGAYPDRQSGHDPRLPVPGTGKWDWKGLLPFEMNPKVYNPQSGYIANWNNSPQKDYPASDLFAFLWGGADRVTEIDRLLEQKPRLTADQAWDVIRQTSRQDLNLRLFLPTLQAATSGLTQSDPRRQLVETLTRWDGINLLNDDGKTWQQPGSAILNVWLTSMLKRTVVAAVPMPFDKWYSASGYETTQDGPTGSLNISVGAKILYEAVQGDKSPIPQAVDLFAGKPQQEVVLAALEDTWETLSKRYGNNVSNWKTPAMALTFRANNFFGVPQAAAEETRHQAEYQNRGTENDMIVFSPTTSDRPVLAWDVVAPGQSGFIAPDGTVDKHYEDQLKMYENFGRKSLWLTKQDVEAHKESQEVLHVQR

O=C(Cc1ccccc1)N[C@H](C(=O)O)c1ccccc1 [N-phenylacetyl-L-phenylglycine]
initial rate hydrolysis, enantioselectivity from kcat/Km ratio: WT PA exhibits already a very good chiral discrimination of N-phenylacetyl-phenylglycine enantiomers
